Experimental data: ChEMBL document CHEMBL4152317, “Engineering potent mesotrypsin inhibitors based on the plant-derived cyclic peptide, sunflower trypsin inhibitor-1” (Eur J Med Chem, 2018)
Where a SMILES comes first, the peptide text is derived from it. Bridges are numbered along the chain shown (N, C = ends). [ ]: non-standard residue; d: D form. Bip = N[C@@H](Cc1ccc(-c2ccccc2)cc1)C(=O)O; 2Nal = N[C@@H](Cc1ccc2ccccc2c1)C(=O)O

Legend:
Serine protease 1 [1] = target: T1, Serine protease 1 (Homo sapiens, UniProt P07477); assay: Inhibition of human cationic trypsin using Boc-VPR-MCA as substrate measured every 30 secs for 10 mins
Trypsin-3 (Homo sapiens) = target: T2, Trypsin-3 (Homo sapiens) (UniProt P35030); assay: Potency index, ratio of SFTI-1 Ki to test compound Ki for recombinant human mesotrypsin
T2 sequence (whole entry): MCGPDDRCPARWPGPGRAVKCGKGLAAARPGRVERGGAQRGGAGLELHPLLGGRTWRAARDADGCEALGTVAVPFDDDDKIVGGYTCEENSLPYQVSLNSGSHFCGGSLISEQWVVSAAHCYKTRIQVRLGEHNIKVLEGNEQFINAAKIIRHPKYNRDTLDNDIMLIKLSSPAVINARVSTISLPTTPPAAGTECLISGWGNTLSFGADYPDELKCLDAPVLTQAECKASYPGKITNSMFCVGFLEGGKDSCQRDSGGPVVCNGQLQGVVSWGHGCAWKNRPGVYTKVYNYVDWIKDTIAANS

Trypsin-3 = target: T3, Trypsin-3 (Homo sapiens, UniProt P35030); assay: Competitive inhibition of recombinant human mesotrypsin using Z-GPR-MCA as substrate measured every 30 secs for 10 mins
T3 sequence (P35030 whole entry): T2 sequence (whole entry)

Serine protease 1 [2] = target: T1, Serine protease 1; assay: Potency index, ratio of SFTI-1 Ki to test compound Ki for human cationic trypsin
Serine protease 1 [3] = target: T4, Serine protease 1 (Bos taurus, UniProt P00760); assay: Inhibition of bovine beta-trypsin using Boc-QAR-MCA as substrate measured every 30 secs for 10 mins
T4 sequence (P00760 whole entry): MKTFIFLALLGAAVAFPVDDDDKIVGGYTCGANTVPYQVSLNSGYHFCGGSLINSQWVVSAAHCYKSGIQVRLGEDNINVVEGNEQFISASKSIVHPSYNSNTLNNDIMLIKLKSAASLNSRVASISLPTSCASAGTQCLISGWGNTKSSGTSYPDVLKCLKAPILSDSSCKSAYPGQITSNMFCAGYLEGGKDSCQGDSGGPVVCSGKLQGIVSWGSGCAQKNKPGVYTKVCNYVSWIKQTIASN

[4] = target: T5, Serine protease 1 (Bos taurus) (UniProt P00760); assay: Potency index, ratio of SFTI-1 Ki to test compound Ki for bovine beta-trypsin
T5 sequence (whole entry): T4 sequence (P00760 whole entry)

[5] = target: T6, Suppressor of tumorigenicity 14 protein (Homo sapiens) (UniProt Q9Y5Y6); assay: Inhibition of recombinant human matriptase at 50 uM using Boc-QAR-MCA as substrate measured every 30 secs for 10 mins relative to control
T6 sequence (whole entry): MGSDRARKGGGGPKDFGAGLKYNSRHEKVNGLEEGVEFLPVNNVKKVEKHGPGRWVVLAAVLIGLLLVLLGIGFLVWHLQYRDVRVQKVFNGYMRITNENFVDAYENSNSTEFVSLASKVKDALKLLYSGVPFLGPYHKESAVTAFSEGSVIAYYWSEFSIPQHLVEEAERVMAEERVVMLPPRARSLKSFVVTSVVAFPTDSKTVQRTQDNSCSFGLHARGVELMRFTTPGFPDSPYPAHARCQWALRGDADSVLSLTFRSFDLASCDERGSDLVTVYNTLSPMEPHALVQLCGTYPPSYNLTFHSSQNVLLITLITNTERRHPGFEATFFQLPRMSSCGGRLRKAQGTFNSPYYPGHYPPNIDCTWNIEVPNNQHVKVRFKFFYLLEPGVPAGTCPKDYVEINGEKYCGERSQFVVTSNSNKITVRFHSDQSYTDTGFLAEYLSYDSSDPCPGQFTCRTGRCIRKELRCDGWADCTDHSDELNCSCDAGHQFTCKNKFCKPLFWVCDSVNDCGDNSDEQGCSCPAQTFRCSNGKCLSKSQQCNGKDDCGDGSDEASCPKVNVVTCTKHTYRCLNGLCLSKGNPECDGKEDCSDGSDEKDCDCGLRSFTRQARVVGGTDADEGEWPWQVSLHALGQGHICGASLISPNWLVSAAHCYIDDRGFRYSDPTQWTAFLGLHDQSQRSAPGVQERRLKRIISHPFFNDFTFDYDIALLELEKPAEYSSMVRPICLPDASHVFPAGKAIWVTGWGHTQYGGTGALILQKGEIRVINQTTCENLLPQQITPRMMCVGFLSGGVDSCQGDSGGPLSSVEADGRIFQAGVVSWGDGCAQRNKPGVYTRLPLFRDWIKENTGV

Prothrombin [6] = target: T7, Prothrombin (Homo sapiens, UniProt P00734); assay: Inhibition of human alpha thrombin at 50 uM using Boc-VPR-MCA as substrate measured every 30 secs for 10 mins relative to control
[7] = target: Chymotrypsinogen A (Bos taurus) (UniProt P00766); assay: Inhibition of bovine alpha-chymotrypsin at 50 uM using Suc-AAPF-MCA as substrate measured every 30 secs for 10 mins relative to control
[8] = target: T8, Suppressor of tumorigenicity 14 protein (Homo sapiens, UniProt Q9Y5Y6); assay: Inhibition of recombinant human matriptase using Boc-QAR-MCA as substrate measured every 30 secs for 10 mins
T8 sequence (Q9Y5Y6 whole entry): T6 sequence (whole entry)

Chymotrypsinogen A = Chymotrypsinogen A (Bos taurus, UniProt P00766); assay: Inhibition of bovine alpha-chymotrypsin using Suc-AAPF-MCA as substrate measured every 30 secs for 10 mins
Prothrombin [9] = target: T7, Prothrombin; assay: Inhibition of human alpha thrombin using Boc-VPR-MCA as substrate measured every 30 secs for 10 mins

T1 sequence (P07477 whole entry): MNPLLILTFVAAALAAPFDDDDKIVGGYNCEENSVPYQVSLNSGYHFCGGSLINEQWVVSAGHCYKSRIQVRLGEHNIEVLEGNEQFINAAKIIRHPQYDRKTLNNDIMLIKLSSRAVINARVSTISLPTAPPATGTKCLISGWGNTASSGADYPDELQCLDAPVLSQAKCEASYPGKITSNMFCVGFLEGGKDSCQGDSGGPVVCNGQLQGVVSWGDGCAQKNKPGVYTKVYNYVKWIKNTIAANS

Compound | Ki (Serine protease 1 [1]) | Ratio Ki (Trypsin-3 (Homo sapiens)) | Ki (Trypsin-3) | Ratio Ki (Serine protease 1 [2]) | Ki (Serine protease 1 [3]) | Ratio Ki [4] | inhibition [5] | inhibition (Prothrombin [6]) | inhibition [7] | IC50 [8] | IC50 (Chymotrypsinogen A) | IC50 (Prothrombin [9])
CC[C@H](C)[C@@H]1NC(=O)[C@@H]2CCCN2C(=O)[C@@H]2CCCN2C(=O)[C@H]([C@@H](C)CC)NC(=O)[C@H](CO)NC(=O)[C@H](CCCCN)NC(=O)[C@H]([C@@H](C)O)NC(=O)[C@@H]2CSSC[C@H](NC1=O)C(=O)N[C@@H](Cc1ccccc1)C(=O)N1CCC[C@H]1C(=O)N[C@@H](CC(=O)O)C(=O)NCC(=O)N[C@@H](CCCNC(=N)N)C(=O)N2 | 0.03 nM |  |  |  |  |  |  |  |  |  |  | 
CC[C@H](C)[C@@H]1NC(=O)[C@@H]2CCCN2C(=O)[C@@H]2CCCN2C(=O)[C@H](CC(=O)O)NC(=O)[C@H](CO)NC(=O)[C@H](CCCCN)NC(=O)[C@H]([C@@H](C)O)NC(=O)[C@@H]2CSSC[C@H](NC1=O)C(=O)N[C@@H](Cc1ccccc1)C(=O)N1CCC[C@H]1C(=O)N[C@@H](CC(=O)O)C(=O)NCC(=O)N[C@@H](CCCNC(=N)N)C(=O)N2 (cyclo(CFPDGRCTKSDPPI); disulfide 1-7) |  | 12 | 402 nM |  |  |  |  |  |  |  |  | 
CC[C@H](C)[C@@H]1NC(=O)[C@@H]2CCCN2C(=O)[C@@H]2CCCN2C(=O)CNC(=O)[C@H](CO)NC(=O)[C@H](CCCCN)NC(=O)[C@H]([C@@H](C)O)NC(=O)[C@@H]2CSSC[C@H](NC1=O)C(=O)N[C@@H](Cc1ccccc1)C(=O)N1CCC[C@H]1C(=O)N[C@@H](CC(=O)O)C(=O)NCC(=O)N[C@@H](CCCNC(=N)N)C(=O)N2 (cyclo(CFPDGRCTKSGPPI); disulfide 1-7) | 49 nM | 37 | 134 nM | 1630 | 81 nM | 10100 | < 50% | < 50% | < 50% | > 50000 nM | > 50000 nM | > 50000 nM
CC[C@H](C)[C@@H]1NC(=O)[C@@H]2CCCN2C(=O)[C@@H]2CCCN2C(=O)CNC(=O)[C@H](CO)NC(=O)[C@H](CCCNC(=N)N)NC(=O)[C@H]([C@@H](C)O)NC(=O)[C@@H]2CSSC[C@H](NC1=O)C(=O)N[C@@H](Cc1ccccc1)C(=O)N1CCC[C@H]1C(=O)N[C@@H](CC(=O)O)C(=O)NCC(=O)N[C@@H](CCCNC(=N)N)C(=O)N2 (cyclo(CFPDGRCTRSGPPI); disulfide 1-7) | 100 nM | 13 | 369 nM | 3330 | 196 nM | 24500 |  |  |  |  |  | 

Now from value to compound:

Ki (Serine protease 1 [1]) | Ratio Ki (Trypsin-3 (Homo sapiens)) | Ki (Trypsin-3) | Ratio Ki (Serine protease 1 [2]) | Ki (Serine protease 1 [3]) | Ratio Ki [4] | inhibition [5] | inhibition (Prothrombin [6]) | inhibition [7] | IC50 [8] | IC50 (Chymotrypsinogen A) | IC50 (Prothrombin [9]) | Compound
0.87 nM | 191 | 26 nM | 29 | 0.046 nM | 6 |  |  |  |  |  |  | CC[C@H](C)[C@@H]1NC(=O)[C@@H]2CCCN2C(=O)[C@@H]2CCCN2C(=O)[C@H](Cc2ccc3ccccc3c2)NC(=O)[C@H](CO)NC(=O)[C@H](CCCCN)NC(=O)[C@H]([C@@H](C)O)NC(=O)[C@@H]2CSSC[C@H](NC1=O)C(=O)N[C@@H](Cc1ccccc1)C(=O)N1CCC[C@H]1C(=O)N[C@@H](CC(=O)O)C(=O)NCC(=O)N[C@@H](CCCNC(=N)N)C(=O)N2 (cyclo([2Nal]PPICFPDGRCTKS); disulfide 5-11)
2.6 nM | 131 | 38 nM | 87 | 0.23 nM | 29 |  |  |  |  |  |  | CC[C@H](C)[C@@H]1NC(=O)[C@@H]2CCCN2C(=O)[C@@H]2CCCN2C(=O)[C@H](Cc2ccc3ccccc3c2)NC(=O)[C@H](CO)NC(=O)[C@H](CCCNC(=N)N)NC(=O)[C@H]([C@@H](C)O)NC(=O)[C@@H]2CSSC[C@H](NC1=O)C(=O)N[C@@H](Cc1ccccc1)C(=O)N1CCC[C@H]1C(=O)N[C@@H](CC(=O)O)C(=O)NCC(=O)N[C@@H](CCCNC(=N)N)C(=O)N2 (cyclo([2Nal]PPICFPDGRCTRS); disulfide 5-11)
1.9 nM | 177 | 28 nM | 63 | 0.17 nM | 21 |  |  |  |  |  |  | CC[C@H](C)[C@@H]1NC(=O)[C@@H]2CCCN2C(=O)[C@@H]2CCCN2C(=O)[C@H](Cc2ccc(-c3ccccc3)cc2)NC(=O)[C@H](CO)NC(=O)[C@H](CCCNC(=N)N)NC(=O)[C@H]([C@@H](C)O)NC(=O)[C@@H]2CSSC[C@H](NC1=O)C(=O)N[C@@H](Cc1ccccc1)C(=O)N1CCC[C@H]1C(=O)N[C@@H](CC(=O)O)C(=O)NCC(=O)N[C@@H](CCCNC(=N)N)C(=O)N2 (cyclo([Bip]PPICFPDGRCTRS); disulfide 5-11)
 | 15 | 335 nM |  |  |  |  |  |  |  |  |  | CC[C@H](C)[C@@H]1NC(=O)[C@@H]2CCCN2C(=O)[C@@H]2CCCN2C(=O)[C@H](CO)NC(=O)[C@H](CO)NC(=O)[C@H](CCCCN)NC(=O)[C@H]([C@@H](C)O)NC(=O)[C@@H]2CSSC[C@H](NC1=O)C(=O)N[C@@H](Cc1ccccc1)C(=O)N1CCC[C@H]1C(=O)N[C@@H](CC(=O)O)C(=O)NCC(=O)N[C@@H](CCCNC(=N)N)C(=O)N2 (cyclo(CFPDGRCTKSSPPI); disulfide 1-7)
0.76 nM | 142 | 35 nM | 25 | 0.062 nM | 8 |  |  |  |  |  |  | CC[C@H](C)[C@@H]1NC(=O)[C@@H]2CCCN2C(=O)[C@@H]2CCCN2C(=O)[C@H](Cc2ccc(-c3ccccc3)cc2)NC(=O)[C@H](CO)NC(=O)[C@H](CCCCN)NC(=O)[C@H]([C@@H](C)O)NC(=O)[C@@H]2CSSC[C@H](NC1=O)C(=O)N[C@@H](Cc1ccccc1)C(=O)N1CCC[C@H]1C(=O)N[C@@H](CC(=O)O)C(=O)NCC(=O)N[C@@H](CCCNC(=N)N)C(=O)N2 (cyclo([Bip]PPICFPDGRCTKS); disulfide 5-11)
 | 110 | 45 nM |  |  |  |  |  |  |  |  |  | CC[C@H](C)[C@@H]1NC(=O)[C@@H]2CCCN2C(=O)[C@@H]2CCCN2C(=O)[C@H](Cc2ccccc2)NC(=O)[C@H](CO)NC(=O)[C@H](CCCCN)NC(=O)[C@H]([C@@H](C)O)NC(=O)[C@@H]2CSSC[C@H](NC1=O)C(=O)N[C@@H](Cc1ccccc1)C(=O)N1CCC[C@H]1C(=O)N[C@@H](CC(=O)O)C(=O)NCC(=O)N[C@@H](CCCNC(=N)N)C(=O)N2 (cyclo(CFPDGRCTKSFPPI); disulfide 1-7)
